In US6495673B1, “Method for isolating the DNA encoding an enzyme” (Medical Research Council, priority 1996, dated 2002):
Blank lines part the entries; values can stand above or below the substance they belong to. No end group written: not given here. *: point of attachment. Biotin = O=C1N[C@H]2[C@H](CS[C@H]2CCCCC(=O)*)N1

Experiments:
[1] = target: T1, calmodulin-tagged phage DN323 (Homo sapiens, UniProt P0DP23); test: Competition assay of (calmodulin-tagged phage)/(biotin-peptide) complex with 1000-fold excess unlabeled peptide, ELISA; format: binding; settings: 1000-fold molar excess of non-biotinylated peptide
T1 construct: made in house; host or cells: E. coli (phage production)
Description: A 10^−8 M solution of a biotinylated calmodulin-binding peptide ([…] or […]; Montigiani et al., 1996) was added to calmodulin-tagged phage preparations (10^12 transforming units/ml) in TBSC and incubated for 10 minutes. To the resulting mixture, aliquoted in different tubes, unlabeled […] peptide in 1000-fold molar excess (10^−5 M) was added at different times. The fraction of phage particles in which the biotinylated peptide had been replaced by the unlabeled peptide was then determined by ELISA as described above.
The results of a competition assay of (calmodulin-tagged phage DN323)/(biotin-peptide) complex with a 1000-fold molar excess of non-biotinylated calmodulin-binding peptide, detected by ELISA are illustrated in FIG. 5. Squares: […]; circles, CAAARAXKNFIAVSAANRFKKIS.

[2] = target: calmodulin (Homo sapiens, UniProt P0DP23); settings: cited from earlier work
[3] = target: T1, calmodulin-tagged phage DN323; test: Stability of (calmodulin-tagged phage)/peptide complex to PEG precipitation, ELISA; format: binding; settings: 20% PEG 6000 + 2.5M NaCl, 1 hour on ice
Description: Stability of (calmodulin-tagged phage)/peptide complexes to PEG precipitation was checked as follows. A 10^−8M solution (final concentration) of a biotinylated calmodulin-binding peptide […] was added to 1 ml of calmodulin-tagged phage (10^12 transforming unit/ml) in TBSC and incubated for 10 minutes. To this solution, 20% polyethyleneglycol (Mw6000) +2.5M NaCl was added (200 μl ) and the resulting mixture was incubated on ice for 1 hour, then centrifuged on a bench centrifuge (13,000 rpm; 5 minutes).
The pellet was resuspended in 1 ml of TBSC. The titre of the phage solutions before and after PEG precipitation were then determined. The fraction of phage particles that were still peptide-bound after the PEG precipitation procedure was evaluated by ELISA, using a streptavidin-coated plate (see above).
The difference in ELISA binding activity between the sample before (1) and after (2) PEG precipitation corresponds to a small loss in phage titre, as determined by E. coli infection and titration. In sample 3, 2% milk in TBSC was used instead of phage.

[4] = system: LUCK+ peptide substrate / GST-SH2 fusion; test: Selection of lck tyrosine kinase phage by capture of phosphorylated peptide on GST-SH2; format: biochemical, murine; settings: LUCK- peptide instead of LUCK+, all three phages
Description: As affinity capture reagent a GST-fusion of the N-terminal SH2 domain of PI 3-kinase was used, subcloned in pGEX vector (Pharmacia) and affinity-purified on glutathione agarose. The GST-SH2 fusion was coated on Nunc Immunotubes (4 ml; 100 μg/ml in PBS) at room temperature overnight. The tubes were then washed and incubated for 2 hours with 3% BSA in phosphorylation buffer (30 mM HEPES, pH 7.4, 150 mM NaCl, 12 mM MgCl2, 1 mM sodium vanadate, 1 mM CaCl2).
ATP was then added to a final concentration of 100 μM. After one minute, the mixtures were loaded onto separate GST-SH2-coated immunotubes and incubated for 30 minutes. The tubes were then washed 10 times with TBS +1 mM CaCl2 (TBSC) +0.1% Tween-20 and 10 times with TBSC. The phage bound to the tube via the phosphorylated peptide was specifically eluted with 1 ml 10 mM EGTA in PBS (Neri et al., 1995) that causes dissociation of the peptide ligand from calmodulin present in the fusion protein presented on the phage.
The eluted phage was used to infect exponentially growing TG1 E. coli cells according to standard procedures (Nissim et al., 1994), then plated on selective ampicillin-glucose-TY plates. Ampicillin-resistant transformants were counted and used to calculate the titre of the phage recovered in the selection procedure.

koff [1]: < 10^−1 s^−1 | time for which complex with calmodulin-tagged phage is stable [1]: more than 2 hours
Substance: CAAARWKKAFIAVSAANRFKKIS
Kd [2]: 2.2 pM

Substance: Biotin-CAAARWKKAFIAVSAANRFKKIS
stability of calmodulin/peptide complex upon PEG precipitation [3]: stable even after PEG precipitation

phage titres recovered [4]: low phage titres
Substance: EPQFEEIGAARWKKAFIAVSNMFKKIS [LUCK-]
